According to the supplement of paper PMC10307832:

Tests used:
Experiment in all cases: relative viability (nuclei count vs DMSO), 5 days (fraction); higher = more cells survive
[1] = compound: C1COCCN1C2=NC(=NC3=C2OC4=C3C=CC=N4)C5=CC(=CC=C5)NC(=O)C6=CN=C(C=C6)N + COc1cc2c(Oc3ccc(NC(=O)C4(C(=O)Nc5ccc(F)cc5)CC4)cc3F)ccnc2cc1OCCCN1CCOCC1 [Foretinib] (partner 0.25 µM)
In short: (§1)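 For relative viability, nuclei counts in treated wells were divided by those in vehicle wells. Lung cancer cell lines had been pin-tool dosed in 1536-well plates the day after seeding and cultured for 5 days, then fixed and stained in one step (final 0.05% Triton X-100, 1% formaldehyde, 1 ug/ml Hoechst) and imaged at 4×. Doses were one drug alone or a fixed anchor-drug dose plus five library-drug doses (not always all listed) in √10 steps, and values are duplicate-plate medians.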

[2] = compound: C1COCCN1C2=NC(=NC3=C2OC4=C3C=CC=N4)C5=CC(=CC=C5)NC(=O)C6=CN=C(C=C6)N + CS(=O)(=O)CCNCc1ccc(-c2ccc3ncnc(Nc4ccc(OCc5cccc(F)c5)c(Cl)c4)c3c2)o1 [Lapatinib] (partner 2 µM)
In short: as §1

SGI-1776 + Tozasertib = compound: CN1CCC(CNc2ccc3ncc(-c4cccc(OC(F)(F)F)c4)n3n2)CC1 [SGI-1776] + Cc1cc(Nc2cc(N3CCN(C)CC3)nc(Sc3ccc(NC(=O)C4CC4)cc3)n2)n[nH]1 [Tozasertib] (partner 0.1 µM)
In short: as §1

SGI-1776 + Decitabine = compound: CN1CCC(CNc2ccc3ncc(-c4cccc(OC(F)(F)F)c4)n3n2)CC1 [SGI-1776] + Nc1ncn([C@H]2C[C@H](O)[C@@H](CO)O2)c(=O)n1 [Decitabine] (partner 2 µM)
In short: as §1

| Cell Line | relative viability ([1]; first compound 0.02 µM) | relative viability ([1]; first compound 0.06325 µM) | relative viability ([1]; first compound 0.2 µM) | relative viability ([1]; first compound 0.6325 µM) | relative viability ([1]; first compound 2 µM) | relative viability ([2]; first compound 0.02 µM) | relative viability ([2]; first compound 0.06325 µM) | relative viability ([2]; first compound 0.2 µM) | relative viability ([2]; first compound 0.6325 µM) | relative viability ([2]; first compound 2 µM) | relative viability (SGI-1776 + Tozasertib; first compound 0.08 µM) | relative viability (SGI-1776 + Tozasertib; first compound 0.8 µM) | relative viability (SGI-1776 + Tozasertib; first compound 2.53 µM) | relative viability (SGI-1776 + Tozasertib; first compound 8 µM) | relative viability (SGI-1776 + Decitabine; first compound 0.08 µM) | relative viability (SGI-1776 + Decitabine; first compound 0.8 µM) | relative viability (SGI-1776 + Decitabine; first compound 2.53 µM) | relative viability (SGI-1776 + Decitabine; first compound 8 µM) |
| --- | --- | --- | --- | --- | --- | --- | --- | --- | --- | --- | --- | --- | --- | --- | --- | --- | --- | --- |
| NCI-H1793 | 0.564 | 0.843 | 0.59 | 0.548 | 0.391 | 0.884 | 0.971 | 0.575 | 0.56 | 0.405 | 0.335 | 0.248 | 0.252 | 0.22 | 0.49 | 0.512 | 0.516 | 0.509 |
| NCI-H1915 | 1.11 | 1.18 | 1.11 | 1.13 | 0.856 | 0.955 | 1.04 | 1.03 | 1.01 | 0.443 | 0.456 | 0.418 | 0.33 | 0.198 | 0.271 | 0.258 | 0.268 | 0.221 |
| NCI-H1944 | 0.898 | 0.916 | 0.942 | 0.772 | 0.731 | 0.802 | 0.864 | 0.753 | 0.876 | 0.859 | 0.247 | 0.252 | 0.253 | 0.226 | 0.427 | 0.439 | 0.468 | 0.396 |
| NCI-H1975 | 1.01 | 0.857 | 0.896 | 0.886 | 0.498 | 0.836 | 0.841 | 0.817 | 0.874 | 0.395 | 0.809 | 0.335 | 0.169 | 0.175 | 0.43 | 0.391 | 0.431 | 0.377 |
| NCI-H1993 | 0.879 | 0.837 | 0.732 | 0.723 | 0.665 | 0.787 | 0.822 | 0.841 | 0.826 | 0.814 | 0.568 | 0.607 | 0.57 | 0.571 | 0.56 | 0.664 | 0.522 | 0.503 |
| NCI-H2009 | 1.28 | 1.24 | 1.19 | 1.11 | 0.932 | 0.933 | 0.944 | 0.889 | 0.89 | 0.792 | 0.646 | 0.543 | 0.449 | 0.387 | 0.388 | 0.374 | 0.36 | 0.342 |
| NCI-H2023 | 0.889 | 1.07 | 0.765 | 0.759 | 0.511 | 0.759 | 0.798 | 0.618 | 0.565 | 0.471 | 0.325 | 0.224 | 0.165 | 0.148 | 0.224 | 0.207 | 0.228 | 0.182 |
| NCI-H2085 | 0.998 | 0.998 | 0.775 | 0.938 | 0.604 | 0.77 | 0.771 | 0.744 | 0.726 | 0.65 | 0.858 | 0.617 | 0.463 | 0.389 | 0.549 | 0.505 | 0.606 | 0.556 |
| NCI-H2087 | 1.03 | 1.28 | 1.05 | 0.962 | 0.741 | 1.11 | 1.09 | 1.07 | 0.997 | 0.807 | 0.257 | 0.198 | 0.186 | 0.192 | 0.331 | 0.26 | 0.278 | 0.215 |
| NCI-H2126 | 1.19 | 1.24 | 1.1 | 0.977 | 1.04 | 0.729 | 0.754 | 0.722 | 0.776 | 0.67 | 0.926 | 0.607 | 0.553 | 0.239 | 0.575 | 0.576 | 0.559 | 0.54 |
| NCI-H2170 | 0.953 | 0.843 | 1.05 | 1.07 | 0.68 | 0.245 | 0.265 | 0.251 | 0.286 | 0.297 | 0.708 | 0.692 | 0.452 | 0.181 | 0.478 | 0.441 | 0.393 | 0.475 |
| NCI-H2347 | 1.09 | 0.962 | 0.861 | 1.07 | 0.657 | 0.993 | 0.787 | 0.929 | 0.944 | 0.933 | 0.491 | 0.579 | 0.418 | 0.279 | 0.631 | 0.673 | 0.639 | 0.577 |
| NCI-H2405 | 0.99 | 1.04 | 1.07 | 1.02 | 0.981 | 0.983 | 1.05 | 1.04 | 1.02 | 0.902 | 0.711 | 0.484 | 0.353 | 0.314 | 0.715 | 0.683 | 0.716 | 0.64 |
| NCI-H3122 | 0.991 | 0.923 | 0.883 | 1.14 | 0.807 | 0.958 | 1.08 | 1.04 | 1.07 | 0.88 | 0.443 | 0.343 | 0.334 | 0.2 | 0.414 | 0.457 | 0.452 | 0.47 |
| PC-3 [JPC-3] | 1.14 | 1.05 | 0.991 | 1.07 | 0.772 | 0.444 | 0.459 | 0.438 | 0.476 | 0.398 | 0.911 | 0.9 | 0.863 | 0.544 | 0.816 | 0.824 | 0.786 | 0.71 |
| PC-14 | 0.965 | 1.17 | 1.04 | 0.977 | 0.755 | 0.308 | 0.391 | 0.307 | 0.283 | 0.249 | 0.618 | 0.522 | 0.452 | 0.0803 | 0.238 | 0.264 | 0.168 | 0.124 |
| RERF-LC-KJ | 0.879 | 0.953 | 0.888 | 0.883 | 0.624 | 0.976 | 0.922 | 0.844 | 0.769 | 0.65 | 0.473 | 0.412 | 0.235 | 0.225 | 0.67 | 0.652 | 0.566 | 0.363 |
